Measured values: patent US10072055B2, “Anti-inflammatory pharmaceutical products” (Resother Pharma APS, priority 2011, dated 2018)
Entries after “also recorded” stand apart in the source; their conditions may differ. Ends that are not written are not given here.

Assays:
FPR2 [1] = target: T1, FPR2 (Homo sapiens, UniProt P25090); assay: p-ERK activation in HEK-FPR2 cells (western blot, densitometry p-ERK vs t-ERK); format: cell-based; set-up: expressed in transfected cells; host or cells: HEK cells (HEK-FPR2); details: for p-ERK activation through the FPR2 receptor: 10 μM peptide, 8 minutes, HEK-FPR2 cells
T1 sequence (P25090 1-351): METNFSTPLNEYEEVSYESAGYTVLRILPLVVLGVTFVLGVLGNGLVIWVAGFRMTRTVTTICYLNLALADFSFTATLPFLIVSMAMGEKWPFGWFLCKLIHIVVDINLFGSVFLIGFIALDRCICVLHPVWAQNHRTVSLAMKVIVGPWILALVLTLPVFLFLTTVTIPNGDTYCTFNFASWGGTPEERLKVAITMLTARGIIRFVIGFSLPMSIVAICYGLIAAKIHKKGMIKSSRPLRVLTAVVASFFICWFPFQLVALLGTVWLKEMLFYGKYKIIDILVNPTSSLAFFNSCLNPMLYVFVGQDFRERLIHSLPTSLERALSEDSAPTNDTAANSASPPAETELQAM
From the text: FIG. 1A and FIG. 1B show western blotting analysis comparing p-ERK activation potency through the FPR2 receptor for five polypeptides of the present disclosure (Pep57 (SEQ ID NO:12); Pep59 (SEQ ID NO:13), Pep60 (SEQ ID NO:15), Pep83 (SEQ ID NO:16) and Pep84 (SEQ ID NO:14)) relative to Ac-ANAX1(2-26)-OH. FIG. 1A is a representative blot for p-ERK and t-ERK.
The experiments whose results are reported in FIG. 1A and FIG. 1B were directed to determining which of the five polypeptides tested (Pep57 (SEQ ID NO: 12); Pep59 (SEQ ID NO: 13), Pep60 (SEQ ID NO: 15), Pep83 (SEQ ID NO: 16) and Pep84 (SEQ ID NO: 14)) best activated the p-ERK through the FPR2 receptor, similar to Ac-ANAX1(2-26)-OH, the parent peptide. The HEK-FPR2 cells were co-incubated with 10 μM of the novel Ac2-26 peptides for 8 minutes following which the cell were lysed and resuspended in cell lysis solution. Then 100 ng of total protein were loaded on to 10% polyacrylamide gel. Following electrophoresis, transfer and blocking the membrane was first probed with an anti p-ERK antibody and then stripped and reprobed with and anti total ERK antibody. […] Data presented as mean and SEM of 3 distinct experiments with one way ANOVA employed for statistical analysis. (*=P<0.05 vs. CT).

[2] = test system: PMN interaction to an activated HUVEC monolayer; assay: Flow chamber assay: PMN interaction with activated HUVEC monolayer (capture, rolling, adhesion); format: cell-based, human; details: for inhibition of PMN interaction with HUVECs (capture, adhesion, rolling): 10 μM peptide, 10 min at 37° C., flow 8 min at 1 dyne/cm^2; for inhibition of PMN/neutrophil-endothelium interactions in flow chamber: concentration not given; for lowest concentration with activity on PMN-HUVEC interactions: flow chamber model
From the text: FIGS. 2A-2C are a series of charts reporting data from flow chamber analysis to determine the inhibitory capability of five polypeptides of the present disclosure (Pep57 (SEQ ID NO:12); Pep59 (SEQ ID NO:13), Pep60 (SEQ ID NO:15), Pep83 (SEQ ID NO:16) and Pep84 (SEQ ID NO:14)) and Ac-ANAX1(2-26)-OH to reduce PMN interaction to an activated HUVEC monolayer.
FIGS. 4A-4C are a series of bar charts reporting percent inhibition provided by three polypeptides (UGP022 (SEQ ID NO:5); UGP025 (SEQ ID NO:7) and UGP026 (SEQ ID NO:8)) of the present disclosure, at different concentrations, on three different parameters (capture—FIG. 4A; rolling—FIG. 4B; and adhesion—FIG. 4C).
FIGS. 2A-2C are a series of charts reporting data from flow chamber analysis to determine the inhibitory capability of five polypeptides (Pep57 (SEQ ID NO: 12); Pep59 (SEQ ID NO: 13), Pep60 (SEQ ID NO: 15), Pep83 (SEQ ID NO: 16) and Pep84 (SEQ ID NO: 14)) of the present disclosure and Ac-ANAX1(2-26)-OH to reduce PMN interaction to an activated HUVEC monolayer. PMNs (5×10^6) were incubated with 10 μM of the various peptides for 10 min at 37° C. The PMNs were then flowed for 8 min at 1 dyne/cm^2, prior to quantifying the degree of PMN interaction with the HUVECs, both as PMN capture (FIG. 2A), adhesion (FIG. 2B) and rolling (FIG. 2C). […] Data are mean±SEM of 3 independent experiments (with distinct PMN and HUVEC preparations); *=P<0.05 vs. CT group, data analyzed using one way ANOVA.
FIGS. 4A-4C make a direct comparison of the activities of UGP022 (SEQ ID NO:5), UGP025 (SEQ ID NO: 7) and UGP026 (SEQ ID NO: 8) in the flow chamber assay, presenting the degree of inhibition on the three parameters under analysis (capture (FIG. 4A); rolling (FIG. 4B) and adhesion (FIG. 4C)).

[3] = test system: leukocyte recruitment into the inflamed airpouch; assay: Mouse IL-1β air-pouch inflammation model (leukocyte migration); format: in vivo; details: for inhibition of leukocyte infiltration/recruitment in air-pouch model: mouse air-pouch
Protocol: FIG. 3A and FIG. 3B are a series of bar charts comparing the anti-inflammatory effects of three polypeptides (Pep57 (SEQ ID NO:12); Pep59 (SEQ ID NO:13) and Pep84 (SEQ ID NO:14)) of the present disclosure versus a vehicle-only control.
FIG. 3A and FIG. 3B are a series of bar charts comparing the anti-inflammatory effects of three polypeptides (Pep57 (SEQ ID NO: 12); Pep59 (SEQ ID NO: 13) and Pep84 (SEQ ID NO: 14)) of the present disclosure versus a vehicle-only control. Mice received 200 μl i.v. of saline+DMSO or a dose of 50 μg per animal of one of the three Ac2-26 derived peptides, immediately before the local injection of mouse IL-1β into 6-day-old airpouches. The extent of cell migration was determined 4 h later, following airpouch washing and staining of migrated cells with Gr1 marker. […] Data are mean±SEM of 5 mice per group. *P<0.05 vs. vehicle group (one way ANOVA).

FPR1 = target: T2, FPR1 (Homo sapiens, UniProt P21462); assay: FPR1 activation (ERK phosphorylation and intracellular calcium fluxes); format: cell-based
T2 sequence (P21462 1-350): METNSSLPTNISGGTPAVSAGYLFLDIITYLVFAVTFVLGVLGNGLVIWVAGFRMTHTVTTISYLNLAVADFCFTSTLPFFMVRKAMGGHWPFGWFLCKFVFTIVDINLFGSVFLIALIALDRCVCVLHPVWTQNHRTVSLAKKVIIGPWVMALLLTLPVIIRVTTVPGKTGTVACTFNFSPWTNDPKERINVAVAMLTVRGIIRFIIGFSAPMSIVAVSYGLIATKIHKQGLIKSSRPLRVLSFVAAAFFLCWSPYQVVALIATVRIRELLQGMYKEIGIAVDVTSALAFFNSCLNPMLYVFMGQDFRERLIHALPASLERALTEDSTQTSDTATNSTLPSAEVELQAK

FPR2 [4] = target: T1, FPR2; assay: FPR2 activation (ERK phosphorylation and intracellular calcium fluxes); format: cell-based
FPR2 [5] = target: T1, FPR2; assay: Binding affinity to FPR2
[6] = 50 μg per animal i.v., IL-1β, 4 h

activation of FPR1 (FPR1)	activation of FPR2 (FPR2 [4])	Substance	downstream signaling via the FPR family of receptors (FPR2 [1])	p-ERK activation through the FPR2 receptor (FPR2 [1])	inhibition of PMN interaction with HUVECs (capture, adhesion, rolling) [2]	inhibition of PMN/neutrophil-endothelium interactions in flow chamber [2]	lowest concentration with activity on PMN-HUVEC interactions [2]	GR1+ve cells in air-pouch (FIG. 3B) [3, 6]	migrated cell count in air-pouch (FIG. 3A) [3, 6]	inhibition of leukocyte infiltration/recruitment in air-pouch model [3]	binding affinity to FPR2 (FPR2 [5])
could activate both FPR1 and FPR2	could activate both FPR1 and FPR2	ANXA1(2-50)-OH (AMVSEFLKQAWFIENEEQEYVQTVKSSKGGPGSAVSPYPTFNPSSDVAA-OH; ends and bridges not checked) [UGP024, 49 amino acids; amino acids 2-50 of human Annexin 1]	–	–	–	more potent than Ac-ANXA1(2-26)-OH and full length ANXA1	–	–	–	more potent than Ac-ANXA1(2-26)-OH and full length ANXA1; also recorded: possess anti-inflammatory activities in an in vivo assay of leukocyte recruitment	–
could activate both FPR1 and FPR2	could activate both FPR1 and FPR2	ANXA1(2-50) Gly51-OH (AMVSEFLKQAWFIENEEQEYVQTVKSSKGGPGSAVSPYPTFNPSSDVAAG-OH; ends and bridges not checked) [UGP021, 50 amino acids; amino acids 2-50 of human Annexin 1, position 50 of the polypeptide is glycine]	–	–	–	more potent than Ac-ANXA1(2-26)-OH and full length ANXA1	–	–	–	more potent than Ac-ANXA1(2-26)-OH and full length ANXA1; also recorded: possess anti-inflammatory activities in an in vivo assay of leukocyte recruitment	binding affinity to the FPR2 in the nanomolar range

Continued, substance first:

Substance	activation of FPR1 (FPR1)	activation of FPR2 (FPR2 [4])	downstream signaling via the FPR family of receptors (FPR2 [1])	p-ERK activation through the FPR2 receptor (FPR2 [1])	inhibition of PMN interaction with HUVECs (capture, adhesion, rolling) [2]	inhibition of PMN/neutrophil-endothelium interactions in flow chamber [2]	lowest concentration with activity on PMN-HUVEC interactions [2]	GR1+ve cells in air-pouch (FIG. 3B) [3, 6]	migrated cell count in air-pouch (FIG. 3A) [3, 6]	inhibition of leukocyte infiltration/recruitment in air-pouch model [3]	binding affinity to FPR2 (FPR2 [5])
Leu11,22-Ac-ANAX1(2-26)-OH (Ac-AMVSEFLKQLWFIENEEQEYLQTVK-OH) [Pep57, 25 amino acids; Annexin 1 (2-26), residues 10 and 21 leucine, residue 1 acetylated]	–	–	lead to downstream signaling via the FPR family of receptors	p-ERK activated was observed to be highest	displayed inhibitory properties similar to those observed in the parent Ac2-26 peptide	significantly inhibited PMN-HUVEC interactions	10 pM	losing this observed effect	display anti-inflammatory properties	significantly inhibiting leukocyte infiltration; also recorded: displayed inhibitory potential in the model	–
Asp11,22-Ac-ANAX1(2-26)-OH (Ac-AMVSEFLKQDWFIENEEQEYDQTVK-OH) [Pep59, 25 amino acids; Annexin 1 (2-26), residues 10 and 21 aspartic acid, residue 1 acetylated]	–	–	lead to downstream signaling via the FPR family of receptors	p-ERK activated was observed to be highest; also recorded: very high p-ERK activation potential	did not display any inhibitory properties in this assay	–	–	–	–	–	–
Met11,22-Ac-ANAX1(2-26)-OH (Ac-AMVSEFLKQMWFIENEEQEYMQTVK-OH) [Pep84]	–	–	lead to downstream signaling via the FPR family of receptors	p-ERK activated was observed to be highest	displayed inhibitory properties similar to those observed in the parent Ac2-26 peptide	significantly inhibited PMN-HUVEC interactions	10 pM	–	display anti-inflammatory properties	inhibiting this inflammatory readout to a larger extent	–
Ac-ANAX1(2-26)-OH (Ac-AMVSEFLKQAWFIENEEQEYVQTVK-OH) [Ac2-26, parent peptide; mimics the 2nd to the 26th amino acids of the Annexin A1 N-terminal region, N-terminally acetylated, reference compound]	–	–	–	activation caused by the parent Ac2-26	inhibitory properties	–	–	–	–	–	–
Glu11,22-Ac-ANAX1(2-26)-OH (Ac-AMVSEFLKQEWFIENEEQEYEQTVK-OH) [Pep60, 25 amino acids; Annexin 1 (2-26), residues 10 and 21 glutamic acid, residue 1 acetylated]	–	–	–	not that effective to phosphorylate ERK	displayed potent inhibitory properties similar to those displayed by the parent Ac2-26 peptide	–	–	–	–	–	–
Ile11,22-Ac-ANAX1(2-26)-OH (Ac-AMVSEFLKQIWFIENEEQEYIQTVK-OH) [Pep83, 25 amino acids; Annexin 1 (2-26), residues 10 and 21 isoleucine, residue 1 acetylated]	–	–	–	–	only Pep57 (SEQ ID NO: 12), Pep60 (SEQ ID NO: 15) and Pep84 (SEQ ID NO: 14) display inhibitory properties	–	–	–	–	–	–
